Test results taken from patent EP2886531B1, “Aspartic acid derivatives” (Merck Patent GmbH, priority 2013, dated 2015).

Columns and labels:
[1] = Prolonged piperidine treatment of VKDGYI peptide resin (aspartimide formation, Asp-Gly motif)
[2] = Prolonged treatment of VKDGYI peptide resin with 1 M Oxyma Pure and 20 % piperidine (aspartimide formation); assay type: physicochemical; conditions: VKDGYI
Protocol: [drawing 14] 50 mg samples of the corresponding aspartic acid derivatives of example 4 are treated over 18 hours with a solution of 1 M Oxyma Pure and 20 % piperidine in dimethylformamide. The peptides are cleaved off the resin with 95 % TFA and analysed with HPLC as well as MS to identify all aspartimide related products (conditions see example 4). The results are summarized in table 6: Table 6: Results after 110 Fmoc removal cycles using an acidic modifier in the piperidine mediated Fmoc removal cocktails, target peptide = VKDG YI, the aspartimide derived by-products are the aspartimide itself and the sum of piperidides

[3] = Prolonged piperidine treatment of VKDRYI peptide resin (aspartimide formation, Asp-Arg motif); assay type: physicochemical
Protocol: (§1) Automated peptide synthesis, piperidine treatments of the resin samples and final TFA cleavages are performed as described in the protocols of example 4. In addition, to evaluate the advantage of the protecting groups used in this invention in heat accelerated SPPS we treat 50 mg peptide resin samples with a solution of 20% piperidine in DMF at 60°C over 200 minutes. Microwave assisted peptide synthesis conditions are often used to shorten peptide synthesis times and increase coupling reaction and Fmoc deprotection.
(§2) In table 4 the amounts of by-products formed after the prolonged exposure of the peptide resins to piperidine (110 Fmoc removal cycles) are summarized for all side-chain protections used in this invention. Table 4: Results after 110 Fmoc removal cycles using piperidine, target peptide sequence = VKDRYI, the aspartimide (Asu) derived by-products are the aspartimide itself and the sum of piperidides

[4] = Prolonged piperidine treatment of VKDNYI peptide resin (aspartimide formation, Asp-Asn motif); assay type: physicochemical; conditions: piperidine
Protocol: (§3) Automated peptide synthesis, piperidine treatments of the resin samples and final TFA cleavages are performed as described in the protocols of example 4. In addition, 50 mg peptide resin samples are treated with a solution of DBU/piperidine/DMF (1:19:79) over 225 minutes to investigate the aspartimide formation at harsher Fmoc deprotection conditions often used for complete Fmoc removals in aggregation prone sequences.
(§4) The resulting peptide samples are analysied and all relevant impurities identified by UPLC-MS analysis (Xevo Waters Q-TOF-1, lock mass = 556.277 (leu-enkephaline), LC-conditions: CHS 18 1,7 µm (100x2.1 mm) at 40°C; water acetonitrile gradient of 5% to 35 % B over 10 min where buffer A is 0.1 % formic acid in water and buffer B is 0.1 % formic acid in acetonitrile, flow 0.6 ml/min).
as §2, with “table 2” for “table 4”, “invention. […]” for “invention.”, “Table 2:” for “Table 4:”, “peptide” for “peptide sequence”, “= VKDNYI,” for “= VKDRYI,”, “derived by products” for “derived by-products”

[5] = Prolonged piperidine treatment at 60°C of VKDRYI peptide resin (aspartimide formation); assay type: physicochemical
Protocol: as §1
The application of microwave heating to SPPS is accelerating coupling and deprotection reactions leading to shorter cycle times, higher repetitive yields, and ultimately purer peptides. On the other hand, microwave energy can also lead to increased levels of aspartimide by-products. To overcome that drawback we evaluated the advantage of the side-chain protections used in this invention by exposing the peptide resins to Fmoc removal cycles at 60 degrees Celsius.
as §2, with “5” for “4”, “at 60 degree Celsius (100” for “(110”, “invention. […]” for “invention.”, “5:” for “4:”, “100” for “110”, “piperidine at 60°C,” for “piperidine,”

[6] = Prolonged DBU treatment of VKDNYI peptide resin (aspartimide formation); assay type: physicochemical
Protocol: as §3, §4
In table 3 the amounts of by-products formed after prolonged DBU treatments are summarized for all side-chain protections used in this invention. […] Since the DBU mediated Fmoc removals are much quicker than the piperidine mediated, this experiment again represents a Fmoc SPPS assembly of an 100mer after introducing the aspartic acid residue using exclusively DBU for Fmoc cleavage. Table 3: Results after 110 Fmoc removal cycles using DBU, target peptide = VKDNYI, the aspartimide (Asu) derived by-products are the aspartimide itself and the sum of piperidides

[7] = VKDGYI, 20 % piperidine in dimethylformamide
[8] = VKDRYI, 110 Fmoc removal cycles
[9] = VKDNYI, 110 Fmoc removal cycles
[10] = VKDRYI, 20% piperidine in DMF at 60°C, 200 minutes
[11] = VKDNYI, DBU/piperidine/DMF (1:19:79), 225 minutes

Asu per 10' cycle [%] [1, 7]: 2.3% | Half-life in 10' cycles [1, 7]: 30 10' cycles | Asu [%] ([1]; VKDGYI, 20 % piperidine in dimethylformamide, 18 hours, aspartimide): 6.4% | piperidides [%] ([1]; VKDGYI, 20 % piperidine in dimethylformamide, 18 hours, sum of piperidides): 85.6% | Asu [%] ([1]; VKDGYI, Oxyma Pure -): 6.4% | Asu per 10' cycle ([1]; VKDGYI, Oxyma Pure -): 2.3 | piperidides [%] ([1]; VKDGYI, Oxyma Pure -): 85.6% | target [%] ([1]; VKDGYI, Oxyma Pure -: 20 % piperidine only, 18 hours (as Table 1)): 8.0% | target [%] ([1]; target peptide VKDGYI, 20 % piperidine in dimethylformamide over 18 hours, 110 Fmoc removal cycles): 8.0% | Asu per 10' cycle ([2]; Oxyma Pure +): 0.45 | Asu [%] ([2]; Oxyma Pure +, 18 hours): 8.8% | piperidides [%] ([2]; Oxyma Pure +, 18 hours): 30.1% | target [%] ([2]; Oxyma Pure +: 1 M Oxyma Pure and 20 % piperidine in dimethylformamide, 18 hours): 61.1% | Asu per 10' cycle ([3]; VKDRYI): 1.3 | Half-life in cycles ([3]; VKDRYI): 55 cycles | D/L-Asu [%] [3, 8]: 16.9% | piperidides [%] [3, 8]: 58.4% | target [%] ([3]; target peptide VKDRYI, 110 Fmoc removal cycles): 24.7% | Asu per 10' cycle ([4]; VKDNYI): 1.6 | Half-life in cycles ([4]; VKDNYI): 40 cycles | D/L-Asu [%] [4, 9]: 4.9% | piperidides [%] [4, 9]: 79.0% | target [%] ([4]; target peptide VKDNYI, 110 Fmoc removal cycles): 16.1% | D/L-Asu [%] [5, 10]: 28.7% | piperidides [%] [5, 10]: 41.0% | Asu per 10' cycle ([5]; VKDRYI, piperidine at 60°C): 1.2 | Half-life in cycles ([5]; VKDRYI, piperidine at 60°C): 58 cycles | target [%] ([5]; target peptide VKDRYI, 20% piperidine in DMF at 60°C over 200 minutes, 100 Fmoc removal cycles): 30.3% | Asu per 2' cycle ([6]; VKDNYI, DBU): 5.2 | Half-life in cycles ([6]; VKDNYI, DBU, 2' cycles): 13 cycles | D/L-Asu [%] [6, 11]: 2.6% | piperides [%] [6, 11]: 97.1% | target [%] ([6]; target peptide VKDNYI, DBU/piperidine/DMF (1:19:79) over 225 minutes, 110 Fmoc removal cycles): 0.3%
Compound: CC(C)(C)OC(=O)C[C@H](NC(=O)OCC1c2ccccc2-c2ccccc21)C(=O)O [tBu, Fmoc-Asp(OtBu)-OH, reference compound]
